Data as given in patent US9611262B2, “Substituted 2-azabicycles and their use as orexin receptor modulators” (JANSSEN PHARMACEUTICA NV, priority 2014, dated 2017).

Columns and labels:
[1] = biological target: human orexin 1 receptor (Homo sapiens (Human), UniProt O43613); experiment: Human orexin 1 receptor radioligand binding (competitive); conditions: CHO cells stably expressing human orexin 1 receptor; 4 nM radioligand; averages of 2-20 runs; read-out: hOX1 Ki
Method: (§1) The in vitro affinity of the compounds of the invention for the rat/human orexin 1 and human orexin 2 receptors was determined by competitive radioligand binding using [^3H](1-(5-(2-fluoro-phenyl)-2-methyl-thiazol-4-yl)-1-((S)-2-(5-phenyl-(1,3,4)oxadiazol-2-ylmethyl)-pyrrolidin-1-yl)-methanone) (Langmead et al., 2004) and [^3H]EMPA (n-ethyl-2[96-methoxy-pyridin-3-yl)-(toluene-2-sulfonyl)-amino]-N-pyridin-3-ylmethyl acetamide), respectively (Langmead et al., 2004, British Journal of Pharmacology 141:340-346; Malherbe et al., 2004, British Journal of Pharmacology 156:1326-41).
(§2) Data are analyzed using pc-Sandy macro and graphed on Graphpad Prism 5. For analysis, each concentration point is averaged from triplicate values and the averaged values are plotted on Graphpad Prism. The IC50 was determined by applying the following equation (GraphPad Prism 5.0, San Diego) for one site competition where X=log (concentration) and Y=specific binding. Top denotes the total [^3H]— (1-(5-(2-fluoro-phenyl)-2-methyl-thiazol-4-yl)-1-((S)-2-(5-phenyl-(1,3,4)oxadiazol-2-ylmethyl)-pyrrolidin-1-yl)-methanone) binding, bottom denotes the nonspecific [^3H]— (1-(5-(2-fluoro-phenyl)-2-methyl-thiazol-4-yl)-1-((S)-2-(5-phenyl-(1,3,4)oxadiazol-2-ylmethyl)-pyrrolidin-1-yl)-methanone) binding. Graphpad Prism calculates Ki value from IC50 and the pre-determined Kd values for [^3H]— (1-(5-(2-fluoro-phenyl)-2-methyl-thiazol-4-yl)-1-((S)-2-(5-phenyl-(1,3,4)oxadiazol-2-ylmethyl)-pyrrolidin-1-yl)-methanone) and [^3H]-EMPA. The Ki for each compound is then uploaded into 3DX. Each run comprises individual compounds in triplicate. The data in Table 1 and Table 2 represent averages from between 2-20 runs
(§3) Rat and Human Orexin 1 Receptor Radioligand Binding Studies
(§4) Human Embryonic Kidney 293 cells (HEK293) stably expressing rat orexin 1 receptor (Genebank accession number NM_001525) or Chinese ovary cells (CHO) stably expressing human orexin 1 receptor (Genebank accession number […]) were grown to confluency in DMEM (Hyclone, cat # SH30022), 10% FBS, 1× Pen/Strep, 1× sodium pyruvate, 10 mM HEPES, 600 μg/mL G418 and DMEM/F12 (Gibco, Cat #11039), 10% FBS, 1× Pen/Strep, 600 μg/mL G418 media, respectively on 150 cm^2 tissue culture plates, washed with 5 mM EDTA in PBS (HyClone Dulbecco's Phosphate Buffered Saline 1× with Calcium and Magnesium, Cat # SH30264.01, hereafter referred to simply as PBS) and scraped into 50 ml tubes. After centrifugation (2K×G, 5 min at 4° C.), the supernatant was aspirated and the pellets frozen and stored at −80° C. Cells were resuspended in PBS in the presence of 1 tablet of protease inhibitor cocktail (Roche, Cat. #11836145001) per 50 mL. […] Competition binding experiments in 96 well polypropylene plates were performed using [^3H]— (1-(5-(2-fluoro-phenyl)-2-methyl-thiazol-4-yl)-1-((S)-2-(5-phenyl-(1,3,4)oxadiazol-2-ylmethyl)-pyrrolidin-1-yl)-methanone) (Moraveck Corporation, specific activity=35.3 Ci/mmol), diluted to a 10 nM concentration in PBS (4 nM final). Compounds were solubilized in 100% DMSO (Acros Organics, Cat. #61042-1000) and tested over a range of 7 concentrations (from 0.1 nM to 10 μM). The final concentration of DMSO in the reactions is equal to or less than 0.1%. Total and nonspecific binding was determined in the absence and presence of 10 μM almorexant. The total volume of each reaction is 200 μL (20 μL of diluted compounds, 80 μL of [^3H]— (1-(5-(2-fluoro-phenyl)-2-methyl-thiazol-4-yl)-1-((S)-2-(5-phenyl-(1,3,4)oxadiazol-2-ylmethyl)-pyrrolidin-1-yl)-methanone) diluted in PBS and 100 μL of the cell suspension). Reactions were run for 60 min at room temperature and terminated by filtration through GF/C filter plates (PerkinElmer, Cat. #6005174) presoaked in 0.3% polyethylenimine using the cell harvester (PerkinElmer Filtermate). The plates were washed 3 times by aspirating 30 ml PBS through the plates. Plates were dried in 55° C. oven for 60 min, scintillation fluid was added, and the radioactivity was counted on a Topcount (Packard). […]

[2] = biological target: human orexin 2 receptor (Homo sapiens (Human), UniProt O43614); experiment: Human orexin 2 receptor radioligand binding ([3H]-EMPA competition); conditions: HEK293 stably expressing human orexin 2 receptor; 2 nM [3H]-EMPA; averages of 2-20 runs; read-out: hOX2 Ki
human orexin 2 receptor, sequence (O43614 whole entry): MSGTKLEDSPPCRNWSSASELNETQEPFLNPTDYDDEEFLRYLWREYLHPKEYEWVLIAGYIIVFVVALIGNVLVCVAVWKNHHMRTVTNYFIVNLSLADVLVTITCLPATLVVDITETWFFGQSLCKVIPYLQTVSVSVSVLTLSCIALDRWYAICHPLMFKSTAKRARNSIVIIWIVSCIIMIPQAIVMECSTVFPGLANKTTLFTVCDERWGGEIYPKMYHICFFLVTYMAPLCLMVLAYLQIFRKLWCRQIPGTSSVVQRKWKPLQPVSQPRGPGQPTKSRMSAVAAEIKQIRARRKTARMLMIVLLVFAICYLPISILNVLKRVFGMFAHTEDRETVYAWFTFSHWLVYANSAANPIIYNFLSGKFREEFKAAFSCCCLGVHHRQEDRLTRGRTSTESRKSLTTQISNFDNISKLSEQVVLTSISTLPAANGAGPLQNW
Method in brief: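 Membranes-free whole HEK293 cells stably expressing human OX2 receptor incubated with [3H]-EMPA and compound (7 concentrations, 0.1 nM–10 μM, ≤0.1% DMSO) for 60 min at room temperature; nonspecific binding with 10 μM almorexant. Filtration and scintillation counting; one-site IC50 converted to Ki using predetermined Kd, triplicates averaged over 2-20 runs.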

[3] = biological target: rat orexin 1 receptor (Rattus norvegicus, UniProt P56718); experiment: Rat orexin 1 receptor radioligand binding (competitive); conditions: HEK293 cells stably expressing rat orexin 1 receptor; 4 nM radioligand; averages of 2-20 runs; read-out: rOX1 Ki
Method: as §1, §2, §3, §4

human orexin 1 receptor, sequence (O43613 whole entry): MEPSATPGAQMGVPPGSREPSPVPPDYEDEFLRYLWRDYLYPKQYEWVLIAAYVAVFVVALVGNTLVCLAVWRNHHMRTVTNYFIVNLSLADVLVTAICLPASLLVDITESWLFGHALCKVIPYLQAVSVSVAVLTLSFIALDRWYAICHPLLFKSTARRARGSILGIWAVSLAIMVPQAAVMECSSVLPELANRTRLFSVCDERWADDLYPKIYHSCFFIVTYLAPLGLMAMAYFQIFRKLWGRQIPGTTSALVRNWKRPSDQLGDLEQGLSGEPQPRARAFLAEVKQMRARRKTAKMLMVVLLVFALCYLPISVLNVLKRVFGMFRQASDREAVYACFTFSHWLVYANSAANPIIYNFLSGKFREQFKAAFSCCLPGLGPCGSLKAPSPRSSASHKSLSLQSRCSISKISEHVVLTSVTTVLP

Structure (SMILES) | Ki [1] [nM] | Ki [2] [nM] | Ki [3] [nM]
O=C(c1cc(F)ccc1-n1nccn1)N1[C@H](CF)[C@@H]2CC[C@H]1[C@H](Oc1ccc(C(F)(F)F)cn1)C2 [Example 78, (5-fluoro-2-(2H-1,2,3-triazol-2-yl)phenyl)((1S,3S,4R,6R)-3-(fluoromethyl)-6-((5-(trifluoromethyl)pyridin-2-yl)oxy)-2-azabicyclo[2.2.2]octan-2-yl)methanone] | 102 | > 10000 | 122
CC1C2CC(Oc3ccc(C(F)(F)F)cn3)C(C2)N1C(=O)c1ncccc1-c1ncccn1 (racemic) [Example 14] | 13 | 3700 | 11
Cc1cnc(C(=O)N2[C@H](C)[C@H]3C[C@@H](Oc4ccc(C(F)(F)F)cn4)[C@@H]2C3)c(-c2ncccc2F)c1 (relative stereo) [Example 34, (3-fluoro-5′-methyl-[2,3′-bipyridin]-2′-yl)((1S*,3R*,4R*,6R*)-3-methyl-6-((5-(trifluoromethyl)pyridin-2-yl)oxy)-2-azabicyclo[2.2.1]heptan-2-yl)methanone] | 14 | 6300 | 11
Cc1ccc(-c2ncccn2)c(C(=O)N2C(C)C3CC(Oc4cnc(C(F)(F)F)cn4)C2C3)n1 (racemic) [Example 44, (R/S)-(6-methyl-3-(pyrimidin-2-yl)pyridin-2-yl)(3-methyl-6-((5-(trifluoromethyl)pyrazin-2-yl)oxy)-2-azabicyclo[2.2.1]heptan-2-yl)methanone] | 55 |  | 71
CC1C2CC(Oc3ccc(C(F)(F)F)cn3)C(C2)N1C(=O)c1cccc(F)c1-c1ncco1 (racemic) [Example 12, (R/S)-(3-fluoro-2-(oxazol-2-yl)phenyl)(3-methyl-6-((5-(trifluoromethyl)pyridin-2-yl)oxy)-2-azabicyclo[2.2.1]heptan-2-yl)methanone] | 8 |  | 8
CC1C2CC(Nc3cnc(C(F)(F)F)cn3)C(C2)N1C(=O)c1cccc(F)c1-c1ncccn1 (single isomer, unassigned) [Example 4, (R/S)-(3-fluoro-2-(pyrimidin-2-yl)phenyl)(3-methyl-6-((5-(trifluoromethyl)pyrazin-2-yl)amino)-2-azabicyclo[2.2.1]heptan-2-yl)methanone] | 59 |  | 56
COc1ccc(C(=O)N2[C@H](C)[C@H]3C[C@@H](Oc4ccc(C(F)(F)F)cn4)[C@@H]2C3)c(-n2nccn2)c1 (relative stereo) [Example 31, (4-methoxy-2-(2H-1,2,3-triazol-2-yl)phenyl)((1S*,3R*,4R*,6R*)-3-methyl-6-((5-(trifluoromethyl)pyridin-2-yl)oxy)-2-azabicyclo[2.2.1]heptan-2-yl)methanone] | 6 |  | 6
CC1C2CC(Oc3ccc(C(F)(F)F)cn3)C(C2)N1C(=O)c1ccccc1-c1ncc(F)cn1 (racemic) [Example 19, (R/S)-(2-(5-fluoropyrimidin-2-yl)phenyl)(3-methyl-6-((5-(trifluoromethyl)pyridin-2-yl)oxy)-2-azabicyclo[2.2.1]heptan-2-yl)methanone] | 29 |  | 10
CC1C2CC(Oc3ccc(C(F)(F)F)cn3)C(C2)N1C(=O)c1ccccc1-c1ncc(F)cn1 (single isomer, unassigned) [Example 19B, (2-(5-fluoropyrimidin-2-yl)phenyl)((1S*,3R*,4R*,6R*)-3-methyl-6-((5-(trifluoromethyl)pyridin-2-yl)oxy)-2-azabicyclo[2.2.1]heptan-2-yl)methanone] | 6 |  | 5
C[C@@H]1[C@H]2C[C@@H](Oc3ccc(C(F)(F)F)cn3)[C@H](C2)N1C(=O)c1ccc(F)cc1-n1nccn1 (relative stereo) [Example 28, (4-fluoro-2-(2H-1,2,3-triazol-2-yl)phenyl)((1S*,3R*,4R*,6R*)-3-methyl-6-((5-(trifluoromethyl)pyridin-2-yl)oxy)-2-azabicyclo[2.2.1]heptan-2-yl)methanone] | 5 |  | 6
CC1C2CC(Nc3cnc(C(F)(F)F)cn3)C(C2)N1C(=O)c1cccc(F)c1-c1ncccn1 (single isomer, unassigned) [Example 67, (R/S)-(3-fluoro-2-(pyrimidin-2-yl)phenyl)(3-methyl-6-((5-(trifluoromethyl)pyrazin-2-yl)amino)-2-azabicyclo[2.2.1]heptan-2-yl)methanone] | 21 |  | 16

The remaining lines, values ahead:

Ki [1] [nM] | Ki [2] [nM] | Ki [3] [nM] | Structure (SMILES)
5 | 146 | 7 | Cc1ccc(-n2nccn2)c(C(=O)N2[C@H](C)[C@H]3C[C@@H](Oc4ccc(C(F)F)cn4)[C@@H]2C3)n1 [Example 110, [(1R,2R,4S,5R)-5-[[5-(difluoromethyl)-2-pyridyl]oxy]-2-methyl-3-azabicyclo[2.2.1]heptan-3-yl]-[6-methyl-3-(triazol-2-yl)-2-pyridyl]methanone]
4 |  | 8 | [2H]C1([2H])[C@H]2C[C@@H]([C@@H]1Oc1ccc(Cl)cn1)N(C(=O)c1ccccc1-n1nccn1)[C@@H]2C [Example 195, [(1R,3R,4S,6R)-3-[(5-chloro-2-pyridyl)oxy]-2,2-dideuterio-6-methyl-5-azabicyclo[2.2.1]heptan-5-yl]-[2-(triazol-2-yl)phenyl]methanone]
3 |  | 3 | C[C@@H]1[C@H]2C[C@@H](Oc3ccc(Cl)cn3)[C@H](C2)N1C(=O)c1ccccc1-n1nccn1 [Example 121, [(1R,2R,4S,5R)-5-[(5-chloro-2-pyridyl)oxy]-2-methyl-3-azabicyclo[2.2.1]heptan-3-yl]-[2-(triazol-2-yl)phenyl]methanone]
2 |  | 4 | CCC1C2CC(Oc3ccc(C(F)(F)F)cn3)C(C2)N1C(=O)c1ccccc1-n1nccn1 (racemic) [Example 213, (R/S)-[2-ethyl-5-[[5-(trifluoromethyl)-2-pyridyl]oxy]-3-azabicyclo[2.2.1]heptan-3-yl]-[2-(triazol-2-yl)phenyl]methanone]
45 |  | 51 | CC(C)CC1C2CC(Oc3ccc(C(F)(F)F)cn3)C(C2)N1C(=O)c1ccccc1-n1nccn1 (racemic) [Example 207, (R/S)-[2-isobutyl-5-[[5-(trifluoromethyl)-2-pyridyl]oxy]-3-azabicyclo[2.2.1]heptan-3-yl]-[2-(triazol-2-yl)phenyl]methanone]
2 |  | 4 | C[C@@H]1[C@H]2C[C@@H](Oc3cnc4ccccc4n3)[C@H](C2)N1C(=O)c1cccc(F)c1-n1nccn1 (relative stereo) [Example 184, (3-fluoro-2-(2H-1,2,3-triazol-2-yl)phenyl)((1S*,3R*,4R*,6R*)-3-methyl-6-(quinoxalin-2-yloxy)-2-azabicyclo[2.2.1]heptan-2-yl)methanone]
